{"source": "patent US9724337B2", "about": "“AG-205 for the treatment of breast cancer” (University of Kentucky Research Foundation, priority 2009, dated 2017)", "key": {"AtMAPR2": {"molecular_target": "T1, AtMAPR2 (Arabidopsis thaliana, UniProt Q9SK39)", "T1 sequence (Q9SK39 1-100)": "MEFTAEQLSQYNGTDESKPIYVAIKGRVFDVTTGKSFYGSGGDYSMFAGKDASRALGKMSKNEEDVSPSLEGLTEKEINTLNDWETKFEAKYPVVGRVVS", "conditions": "in silico screen then binding assay, 2005; cited from earlier work"}, "HCC827": {"system": "HCC827", "assay": "AG-205 viability assay in HCC827 cells", "format": "cell-based", "experimental": "(§1) Tissue culture. MDA-MB-468 cells were a kind gift from Dr. Rina Plattner of the University of Kentucky and were maintained in medium consisting of Dulbecco's Modified Eagle Medium containing 10% serum supreme (Fisher) and antibiotics. Cells were grown at 37° C. in 5% CO2 in air. A549 and HCC827 lung cancer cells, as well as SK-Br-3 breast cancer cells were obtained from the ATCC (American Type Culture Collection) and were grown under the same conditions. The H1650 lung cancer cell line was a kind gift from Dr. Heinz Kohler of the University of Kentucky. The Pgrmc1 ligand AG-205 was purchased from Timtec, Inc. The EGFR inhibitor AG1478 was from Biomol, Inc. and was used at a concentration range of 0.8-40 μM.\nProliferation, anchorage-independent growth and migration assays. For growth curves, cells were plated in 24 well dishes and grown in 10% serum-containing medium. […] Following the harvest of the final time point, the cells from each time point were counted using a Bright-line hemocytometer (Hausser Scientific).\n(§2) MTT viability assays were performed as described previously. […] The cells were then incubated with 0.5 mg/ml of 3-[4,5-dimethylthiazol-2-y]-2,5-diphenyltetrazolium bromide for 1.5 hours, at which time the media was removed, the precipitated crystals were dissolved in dimethyl sulfoxide, and the absorbance at 590 nm was measured using a Bio-Tek μQuant spectrophotometer."}, "MDA-MB-468 cells": {"system": "MDA-MB-468 cells", "assay": "Viability / proliferation of MDA-MB-468 cells", "format": "cell-based, human", "experimental": "as §1\n(§3) Proliferation, anchorage-independent growth and migration assays. For growth curves, cells were plated in 24 well dishes and grown in 10% serum-containing medium. At various times, the cells were harvested with trypsin and fixed with formaldehyde added to a final concentration of 3.7%. Following the harvest of the final time point, the cells from each time point were counted using a Bright-line hemocytometer (Hausser Scientific).\n(§4) MTT viability assays were performed as described previously. Briefly, cells were plated in 96-well tissue culture dishes and grown in various media with different drug doses. The cells were then incubated with 0.5 mg/ml of 3-[4,5-dimethylthiazol-2-y]-2,5-diphenyltetrazolium bromide for 1.5 hours, at which time the media was removed, the precipitated crystals were dissolved in dimethyl sulfoxide, and the absorbance at 590 nm was measured using a Bio-Tek μQuant spectrophotometer."}, "H358": {"system": "H358", "assay": "AG-205 viability assay in H358 cells", "format": "cell-based", "conditions": "H358, lung, serum-starved, EGFR wild-type", "experimental": "as §3, §4"}, "EGFR": {"system": "EGFR", "assay": "Western blot of EGFR levels in MDA-MB-468 cells", "format": "cell-based, human", "conditions": "12-50 μM dose", "experimental": "(§5) Panel A is a diagram indicating the positions of the siRNA molecules targeting Pgrmc1. Exons 1, 2 and 3 are indicated by “ex”. MDA-MB-468 cells were transfected with a control siRNA (siCON, lanes 1 and 3) or two separate siRNAs targeting Pgrmc1 (siPGR and siPGR2, lanes 2 and 4, respectively). In panels B-E and H-L, protein levels were analyzed by western blot for EGFR (B), phospho-tyrosine (C), Pgrmc1 (D) and ku70 (E), as a control for protein loading. Panels F—H show western blot analyses for (F) IGF-1R, (G) c-Kit and (H) tfR. In panels I and J, transcript levels were analyzed by reverse transcriptase-PCR for EGFR (I) and Pgrmc1 (J). The top band indicates the gene of interest, while actin primers were included in the same reaction as a control for cDNA loading. […] In panels K-L, MDA-MB-468 cells were treated with increasing doses of the Pgrmc1 ligand AG-205. Protein expression was analyzed by western blot for EGFR (K) and ku70 (L). Cells were treated with 0 (lanes 1), 2 (lanes 2), 10 (lanes 3) or 50 (lanes 4) μM AG-205 for 24 hours in serum-free medium. In panels M-N, A549 cells were treated with the same doses and analyzed for EGFR (M) and ku70 (N). […] Expression analyses were repeated at least in duplicate throughout.\n(§6) Immunological techniques. […]"}, "ku70 [1]": {"system": "ku70", "assay": "Western blot of ku70 in A549 cells", "format": "cell-based, human", "experimental": "as §5, §6"}, "[2]": {"system": "cancer cell lines from lung, breast, colon and prostate tissues", "assay": "Toxicity to multiple cancer cell lines", "format": "cell-based", "conditions": "most active when serum is absent"}, "ku70 [3]": {"system": "ku70", "assay": "Western blot of ku70 levels in MDA-MB-468 cells", "format": "cell-based, human", "conditions": "AG-205 treatment", "experimental": "as §5, §6"}, "[4]": {"system": "polyADP ribose polymerase (PARP) or caspase 3", "assay": "Cleavage of PARP or caspase 3 in AG-205-treated cancer cells", "format": "cell-based, human", "conditions": "AG-205-treated cells losing viability", "experimental": "Immunological techniques. Cells were extracted in RIPA buffer (50 mM Tris, pH 8.0, 1% Nonidet P-40, 150 mM NaCl, 0.5% sodium deoxycholate, 0.1% sodium dodecyl sulfate, 1 mM phenylmethylsulfonyl fluoride, 10 μg/ml of aprotinin, leupeptin and pepstatin) for standard western blotting. The antibodies used in the study were anti-caveolin-1 (N-20, Santa Cruz Biologicals, # sc-894), anti-EGFR (1005, Santa Cruz, # sc-03), anti-ku70 (A-9, Santa Cruz # sc-5309), anti-Met (C-12, Santa Cruz # sc-10), anti-PARP (H-250, Santa Cruz # sc-7150), anti-phosphotyrosine (P-Tyr-100, Cell Signaling), anti-Pgrmc1 (Novus Biologics) and anti-tubulin (Neomarkers). Some western blots for Pgrmc1 were performed with a polyclonal antibody called anti-PGR-UK1 which was raised in rabbits to an internal 10 amino acid peptide."}, "MDA-MB-231": {"system": "MDA-MB-231", "assay": "AG-205 viability assay in MDA-MB-231 cells", "format": "cell-based", "conditions": "MDA-MB-231, breast, serum-starved, EGFR wild-type", "experimental": "(A) Pgrmc1 (SEQ ID NO: 7) shares homology with AtMAPR2 (SEQ ID NO: 8) (underlined residues), which was the target for a screen for small molecule ligands. The putative heme-binding Tyr106 and Tyr112 are indicated with black boxes. (B) The molecular structure of AG-205 includes multiple aromatic components. (C) Spectroscopic scan of Pgrmc1 with vehicle control compared with vehicle plus 50 µM AG-205. The decrease in relative absorbance at 400 nm is consistent with an AG-205-induced change in the spectral properties of Pgrmc1-heme. The scan is representative of four separate scans using different Pgrmc1 protein preparations. […] Percent viability was determined by cell counting, and “% viability” refers to the cell number relative to the untreated control.\nProliferation, anchorage-independent growth and migration assays. […] Following the harvest of the final time point, the cells from each time point were counted using a Bright-line hemocytometer (Hausser Scientific).\nas §2"}, "SK-Br-3 cells": {"system": "SK-Br-3 cells", "assay": "Growth inhibition of SK-Br-3 cells", "format": "cell-based", "conditions": "modest EGFR, extremely high HER2/neu", "experimental": "as §1"}, "H157": {"system": "H157", "assay": "AG-205 viability assay in H157 cells", "format": "cell-based", "conditions": "H157, lung, serum-starved, EGFR wild-type", "experimental": "as §3, §4"}}, "data": [{"smiles": "Cc1ccc2c(c1)[C@H]1CN(C)CC[C@H]1N2C(=O)CSc1nnnn1-c1ccc(Cl)cc1", "note": "[AG-205]", "values": [{"measurement": "binding to At Pgrmc1 (AtMAPR2)", "setting": "AtMAPR2", "value": "bind to At Pgrmc1"}, {"measurement": "IC50", "setting": "HCC827; HCC827, lung, serum-starved, EGFR ΔE746-A750", "value": "> 100", "unit": "µM"}, {"measurement": "sensitivity to growth inhibition", "setting": "HCC827; HCC827 cells, ΔE746-A750 EGFR", "value": "relatively insensitive"}, {"measurement": "IC50", "setting": "MDA-MB-468 cells; MDA-MB-468, breast, serum-starved, EGFR wild-type, read-out: IC50 values for AG-205, Serum-starved", "value": 12, "unit": "µM"}, {"measurement": "cell viability", "setting": "MDA-MB-468 cells; MDA-MB-468 cells, 20 μM dose, 72-96 hours after treatment", "value": "marked loss of viability"}, {"measurement": "viability under normal culture conditions", "setting": "MDA-MB-468 cells; MDA-MB-468 cells, ligand abundant (10% serum)", "value": "slight increase in viability"}, {"measurement": "cell growth inhibition", "setting": "MDA-MB-468 cells; MDA-MB-468 cells, wild-type EGFR", "value": "efficiently inhibited cell growth"}, {"measurement": "growth inhibitory activity depending on culture conditions", "setting": "MDA-MB-468 cells; low serum versus 10% serum, P=0.0006 for MDA-MB-468 at 20 μM", "value": "killing cells grown in low serum conditions but not 10% serum"}, {"measurement": "IC50", "setting": "H358", "value": 12, "unit": "µM"}, {"measurement": "decrease in EGFR levels", "setting": "EGFR", "value": 14, "unit": "fold"}, {"measurement": "ku70 levels", "setting": "ku70 [1]", "value": "unaffected"}, {"measurement": "toxicity to cancer cell lines", "setting": "[2]", "value": "toxic to multiple cancer cell lines"}, {"measurement": "Ku70 levels", "setting": "ku70 [3]", "value": "not affected"}, {"measurement": "cleavage of PARP or caspase 3", "setting": "[4]", "value": "did not detect an increase"}, {"measurement": "IC50", "setting": "MDA-MB-231", "value": 18, "unit": "µM"}, {"measurement": "sensitivity to growth inhibition", "setting": "SK-Br-3 cells", "value": "relatively insensitive"}, {"measurement": "IC50", "setting": "H157", "value": 10, "unit": "µM"}]}]}
